From US10363239B2, “Method for inhibiting growth of cancer cells” (Pain Therapeutics, Inc., priority 2013, dated 2019)
Read-outs that look alike come from different tables or passages of the source.

Columns and labels:
mu opiate receptor (MOR) = assay: MOR agonist activity using [35S]GTPγS binding assay in striatal membranes; type: biochemical; details: for % DAMGO (0.1 μM) / % DAMGO (1 μM): relative to DAMGO; for % DAMGO + BFNA: 1 μM compound + β-FNA, relative to DAMGO + BFNA
Method in brief: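 Striatal membranes (200 μg) were preincubated 5 min at 30 °C in HEPES pH 7.5 with 100 mM NaCl, 1 mM MgCl2 and 0.5 nM [35S]GTPγS, then 5 min more with 0.1–10 μM compound. Gαo was immunoprecipitated and bound radioactivity counted by scintillation.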

[1] = biological target: FLNA pentapeptide of SEQ ID NO: 1 (Bn-VAKGL) (Homo sapiens, UniProt P21333); assay: FITC-NLX-based FLNA screening assay (inhibition of FITC-naloxone binding to Bn-VAKGL on streptavidin plates); details: 10 nM FITC-NLX
[2] = Series C-1, 0.1 μM compound, [35S]GTPγS binding to Gαo, striatal membranes
[3] = Series C-1, 1 μM compound + 1 μM β-FNA
[4] = Series C-1, 1 μM compound, [35S]GTPγS binding to Gαo, striatal membranes
[5] = FLNA-binding compound 0.01 μM, read-out: Percent Binding Inhibition
[6] = FLNA-binding compound 0.1 μM, read-out: Percent Binding Inhibition
[7] = FLNA-binding compound 1 μM, read-out: Percent Binding Inhibition
[8] = read-out: Percent Binding Inhibition, FLNA-binding compound 0.01 μM
[9] = read-out: Percent Binding Inhibition, FLNA-binding compound 0.1 μM
[10] = read-out: Percent Binding Inhibition, FLNA-binding compound 1 μM

Row | Compound | % DAMGO (0.1 μM) (mu opiate receptor (MOR); Series C-1, 0.1 μM compound) [%] | Concentration of FLNA-Binding Compound as Agonist 0.1 μM (mu opiate receptor (MOR); [2]) [%] | Concentration of FLNA-Binding Compound as Agonist 1 μM + BFNA (mu opiate receptor (MOR); [3]) [%] | % DAMGO + BFNA (mu opiate receptor (MOR); Series C-1) [%] | % DAMGO (1 μM) (mu opiate receptor (MOR); Series C-1, 1 μM compound) [%] | Concentration of FLNA-Binding Compound as Agonist 1 μM (mu opiate receptor (MOR); [4]) [%] | inhibition at 0.01 µM [1, 5] [%] | inhibition at 0.1 µM [1, 6] [%] | inhibition at 1 µM [1, 7] [%] | inhibition at 0.01 µM [1, 8] [%] | inhibition at 0.1 µM [1, 9] [%] | inhibition at 1 µM [1, 10] [%] | % DAMGO (0.1 μM) (mu opiate receptor (MOR); Series C-2, 0.1 μM compound) [%] | MOR agonist activity, percent [35S]GTPγS binding at the stated compound concentration (mu opiate receptor (MOR); Series C-2, 0.1 μM compound, [35S]GTPγS binding to Gαo, striatal membranes) [%] | MOR agonist activity, percent [35S]GTPγS binding at the stated compound concentration (mu opiate receptor (MOR); Series C-2, 1 μM compound + 1 μM β-FNA) [%] | % DAMGO + BFNA (mu opiate receptor (MOR); Series C-2) [%] | % DAMGO (1 μM) (mu opiate receptor (MOR); Series C-2, 1 μM compound) [%] | MOR agonist activity, percent [35S]GTPγS binding at the stated compound concentration (mu opiate receptor (MOR); Series C-2, 1 μM compound, [35S]GTPγS binding to Gαo, striatal membranes) [%]
1 | COC(=O)c1ccc(S(=O)(=O)N2CCC3(CC2)OCCN3S(=O)(=O)c2ccc(C(=O)OC)cc2)cc1 [Compound C0028] | 55.6 | 93.9 | 78.4 | 472.3 | 60.5 | 132.4 | 32.2 | 36.6 | 43.3 |  |  |  |  |  |  |  |  | 
2 | O=S(=O)(c1ccc(F)cc1)N1CCC2(CC1)OCCN2S(=O)(=O)c1ccc(F)cc1 [Compound C0029] | 91.2 | 175.4 | 16.6 | 37.8 | 113.1 | 308.8 |  |  |  | 38.6 | 43.2 | 50.5 |  |  |  |  |  | 
3 | CCCCc1ccc(S(=O)(=O)N2CCC3(CC2)OCCN3S(=O)(=O)c2ccc(CCCC)cc2)cc1 [Compound C0030] | 96.0 | 150.3 | 95.0 | 291.4 | 98.0 | 226.8 | 37.4 | 45.4 | 56 |  |  |  |  |  |  |  |  | 
4 | O=C(c1ccc([N+](=O)[O-])cc1)N1CCC2(CC1)OCCN2C(=O)c1ccc([N+](=O)[O-])cc1 [Compound C0032] | 92.8 | 145.4 | 80.9 | 248.2 | 87.3 | 202.0 |  |  |  | 41.5 | 50.5 | 55.3 |  |  |  |  |  | 
5 | NS(=O)(=O)c1ccc(S(=O)(=O)N2CCC3(CC2)OCCN3S(=O)(=O)c2ccc(S(N)(=O)=O)cc2)cc1 [Compound C0034] | 61.3 | 103.6 | 80.1 | 482.5 | 76.7 | 167.9 |  |  |  | 29.6 | 38.3 | 44.8 |  |  |  |  |  | 
6 | O=[N+]([O-])c1ccc(S(=O)(=O)N2CCC3(CC2)NCCO3)cc1 [Compound C0040] |  |  |  |  |  |  | 38.4 | 46.3 | 55.9 |  |  |  | 93.1 | 145.8 | 90.4 | 277.3 | 133.2 | 308.3
7 | COc1ccc(NC(=O)N2CCC3(CC2)OCCN3S(=O)(=O)c2ccc(OC)cc2)cc1 [Compound C0041] | 110.1 | 186.1 | 95.5 | 575.3 | 111.7 | 244.4 |  |  |  | 38.3 | 47 | 51.2 |  |  |  |  |  | 
